Results taken from patent US20080207716A1, “Formulations and Dosing Regiment for Ppar-Alpha Modulators” (Eli Lilly and Company Patent Division, priority 2005, published 2008).

Assays:
Type in all cases: in vivo, human
healthy obese subjects = assay: Fasting lipid panel, MDSS clinical study (14 days daily dosing, 30 day follow up)
Description: FIG. 1. FIG. 1 illustrates the time profile of percentage change from baseline for LDL-C following the administration of daily oral doses of LY518674 over 14 days and 30 day follow up afterwards, in healthy obese subjects in MDSS of a study conducted substantially as described by Example 1.
(§1) Each of the 3 groups of subjects consist of approximately 9 subjects in a 2:1 ratio of active treatment to placebo, where the order of placebo administration is randomized across both the SDSS and MDSS portions of the study. All 3 groups of subjects shall be scheduled to participate in both SDSS and MDSS portions. However, the SDSS portion is completed and analyzed several months prior to beginning the MDSS (Period 3/4). The 45-day MDSS portion of the original study is designed to test 4 active doses (0.025, 0.1, 1 and 10 mg) administered daily for the first 14 days of the study. The MDSS portion recruits subjects to form 4 groups of subjects. Approximately 36 subjects (9 per dose group) are enrolled into the MDSS portion of the study.
(§2) Safety is assessed throughout the study by physical examination, adverse event monitoring, electrocardiograms, clinical laboratory tests, and vital sign measurements. Pharmacodynamic evaluation includes a postprandial lipid response during the single-dose safety portion. During the multiple-dose safety study, the pharmacodynamic evaluation includes an oral glucose tolerance test, a fasting lipid panel and a postprandial lipid test. The static lipid panel included triglycerides, total cholesterol, low-density lipoprotein cholesterol [LDL-C], high-density lipoprotein cholesterol [HDL-C], Apoliproteins A1, A2, B, and C3 for cholesterol metabolism. C-reactive protein (CRP) and adiponectin are measured as biomarkers for inflammation and peroxisome proliferated agonist receptor (PPAR) gamma activity, respectively. The dynamic lipid tests include post-prandial measurements of glucose and triglycerides.

[1] = Pharmacokinetics after oral single- and multiple-dose administration
Protocol: (§3) A single-blinded, single- (SDSS) and multiple-dose (MDSS), placebo-controlled, dose-escalation study is designed to evaluate the safety, pharmacokinetics, and pharmacodynamics of orally administered study drug in healthy obese men and women. Three different groups of subjects complete a one-step escalation of the study drug dose within Periods 1 and 2 (SDSS). The design includes a total of 6 active doses (0.1, 1, 10, 30, 60, and 100 mg) to be tested. The decision to escalate to higher doses is based on the safety assessment of preceding doses. The minimum time between dose escalations within Periods 1 and 2 is one week.
as §1
The median time at maximal concentration (tmax) was approximately 0.5 to 1 hour. The exposure appeared dose-proportional within the studied range.

[2] = system: healthy obese men and women; assay: Meal tolerance test in the single-dose (SDSS) portion of the clinical study; conditions: for Triglyceride AUEC(24-37) geometric mean (95% CI): 24-37 h post dose, placebo 44.6
Description: (§4) A single-blinded, single- (SDSS) and multiple-dose (MDSS), placebo-controlled, dose-escalation study is designed to evaluate the safety, pharmacokinetics, and pharmacodynamics of orally administered study drug in healthy obese men and women. Three different groups of subjects complete a one-step escalation of the study drug dose within Periods 1 and 2 (SDSS). […] The decision to escalate to higher doses is based on the safety assessment of preceding doses. The minimum time between dose escalations within Periods 1 and 2 is one week.
as §2
A meal tolerance test (MTT) was performed from 24 to 37 hours after each single dose during the SDSS portion of a clinical trial conducted substantially as described herein by Example 1 using LY518674 as the study drug. The data are analyzed by calculating an area under the concentration-time curve for triglycerides, nonesterified fatty acids and glucose over the postprandial periods from breakfast to lunch (area under the effect curve [AUEC{24-28}]), after lunch (AUEC[28-37]), and the entire test period (AUEC[24-37]).

[3] = system: healthy obese men and women; assay: Lipid pharmacodynamics (LDL-C, ApoB, ApoC), SDSS clinical study
Description: as §4
as §2, with “The dynamic lipid tests include post-prandial measurements of glucose and triglycerides.” left out

[4] = system: healthy obese men and women; assay: Safety and tolerability assessment, SDSS clinical study; conditions: single oral doses 30 and 60 mg
Protocol: as §3
as §2, with “The static lipid panel included triglycerides, total cholesterol, low-density lipoprotein cholesterol [LDL-C], high-density lipoprotein cholesterol [HDL-C], Apoliproteins A1, A2, B, and C3 for cholesterol metabolism.” left out, “The dynamic lipid tests include post-prandial measurements of glucose and triglycerides.” left out

With `Cc1ccc(Cn2nc(CCCc3ccc(OC(C)(C)C(=O)O)cc3)[nH]c2=O)cc1` [LY518674, Propanoic Acid, 2-[4-[3-[2,5-dihydro-1-[(4-methylphenyl)methyl]-5-oxo-1H-1,2,4-triazol-3-yl]propyl]phenoxy]-2-methyl-] as the compound, how does the “Lowest dose providing a pharmaceutically desirable effect” value (healthy obese subjects; MDSS study) read?
Its value is 25 µg.

What about the “Maintenance of pharmacological effect after dosing stopped” value (healthy obese subjects; after 14 days daily dosing) of the same compound?
The value was roughly 14 days.

What about the “Time for all parameters to return to baseline after cessation of dosing” value (healthy obese subjects; after 14 days daily dosing) of the same compound?
The value was no more than 2 weeks.

What about the LDL-C change (healthy obese subjects; daily oral doses 0.025, 0.1, 1 and 10 mg for 14 days, all doses similar magnitude) of the same compound?
The LDL-C change was “dramatically reduced”.

And the half-life ([1]; both sexes, human, in vivo, oral, as stated in MDSS results)?
Its half-life is roughly 10 h.

What about the half-life ([1]; both sexes, human, in vivo, oral, as stated in SDSS/PK results) of the same compound?
The half-life was less than 10 h.

What about the Tmax ([1]; both sexes, human, in vivo, oral, healthy obese subjects, read-out: Median time at maximal concentration (tmax)) of the same compound?
The Tmax was 0.5 to 1 h.

What about the “Time to steady-state exposure” value ([1]; daily oral dosing) of the same compound?
The value was no more than 2 days.

And the Mean accumulation ratio ([1]; daily oral dosing, steady state)?
The Mean accumulation ratio was “no more than 1.35”.

What about the “Absorption after oral administration” value ([1]; healthy obese subjects) of the same compound?
The value was “rapidly absorbed”.

And the “Pharmacokinetics following single- versus multiple-dose administration” value ([1]; in vivo)?
Its value is “No differences”.

And the Exposure versus dose ([1]; within the studied dose range)?
Its Exposure versus dose is “dose-proportional”.

And the “Lowest dose providing a pharmaceutically desirable effect” value ([2]; single dose study)?
Its value is 100 µg.

What about the “Effect on triglyceride (TG) AUEC” value ([2]; single dose, meal tolerance test 24 to 37 hours post dose) of the same compound?
The value was “rapid and profound reduction”.

What about the “Dose at which maximum TG AUEC reduction is approached” value ([2]; single oral dose) of the same compound?
Its value is “approximately 1 mg”.

What about the “Triglyceride AUEC(24-37) geometric mean (95% CI)” value ([2]; single oral dose 0.01 mg) of the same compound?
The value was 37.8 (31.2, 45.8) mmol · hr/L.

And the “Triglyceride AUEC(24-37) ratio of geometric means, dose vs. placebo (95% CI)” value (“Triglyceride AUEC(24-37) ratio … (95% CI)” for short) ([2]; single oral dose 0.01 mg, p 0.083)?
The value was 0.85 (0.70, 1.02) [0.083].

And the “Triglyceride AUEC(24-37) geometric mean (95% CI)” value ([2]; single oral dose 0.1 mg)?
The value was 27.6 (23.0, 33.2) mmol · hr/L.

What about the “Triglyceride AUEC(24-37) ratio … (95% CI)” value ([2]; single oral dose 0.1 mg, p <.001) of the same compound?
The value was 0.62 (0.52, 0.74) [<.001*].

What about the “Triglyceride AUEC(24-37) geometric mean (95% CI)” value ([2]; single oral dose 1 mg) of the same compound?
The value was 23.9 (20.0, 28.6) mmol · hr/L.

What about the “Triglyceride AUEC(24-37) ratio … (95% CI)” value ([2]; single oral dose 1 mg, p <.001) of the same compound?
Its value is 0.54 (0.45, 0.64) [<.001*].

What about the “Triglyceride AUEC(24-37) geometric mean (95% CI)” value ([2]; single oral dose 10 mg) of the same compound?
The value was 24.3 (20.1, 29.5) mmol · hr/L.

What about the “Triglyceride AUEC(24-37) ratio … (95% CI)” value ([2]; single oral dose 10 mg, p <.001) of the same compound?
The value was 0.55 (0.45, 0.67) [<.001*].

And the “Triglyceride AUEC(24-37) geometric mean (95% CI)” value ([2]; single oral dose 30 mg)?
Its value is 20.0 (16.3, 24.5) mmol · hr/L.

What about the “Triglyceride AUEC(24-37) ratio … (95% CI)” value ([2]; single oral dose 30 mg, p <.001) of the same compound?
Its value is 0.45 (0.37, 0.54) [<.001*].

What about the “Triglyceride AUEC(24-37) geometric mean (95% CI)” value ([2]; single oral dose 60 mg) of the same compound?
Its value is 25.2 (20.6, 30.7) mmol · hr/L.

What about the “Triglyceride AUEC(24-37) ratio … (95% CI)” value ([2]; single oral dose 60 mg, p <.001) of the same compound?
Its value is 0.56 (0.46, 0.69) [<.001*].

What about the “ApoB and ApoC change” value ([3]; SDSS, oral) of the same compound?
Its value is “decreased in a fashion similar to that seen for LDL-C changes”.

And the LDL-C change ([3]; single oral dose 0.01 mg)?
Its LDL-C change is “LDL-C reduction consistent with the reduction observed at the higher doses”.

What about the “Tolerability finding prohibiting administration of higher doses” value [4] of the same compound?
The value was “Gastrointestinal intolerance”.
